The text below walks through data of patent US20200261596A1, “Therapeutic Particles with Peptide Boronic Acid or Boronate Ester Compounds and Methods of Making and Using Same” (Pfizer Inc., priority 2016, published 2020).

Converted amounts (≈) assume the structure as drawn. Like-named read-outs stand apart in the source and are kept apart here. Bounds are passed on as bounds.

What is called solubility is the concentration that dissolves in the medium under given conditions.

A short description of data set [1]: Pharmacologic kinetic profile in rats (plasma levels by LCMS). The conditions noted are these: single intravenous dose of 0.1 mg/kg, FIG. 13A. The format is in vivo, Sprague-Dawley rats. As to the method:
Rats (male Sprague Dawley, approximately 300 g with jugular cannulae are given a single intravenous dose of 0.1 mg/kg free drug or passively targeted nanoparticles (PTNP) encapsulating drug at time t=0. At various times after dosing, blood samples are collected from the jugular cannulae into tubes containing lithium heparin, and plasma is prepared. Plasma levels are determined by extraction of the drug from plasma followed by LCMS analysis.

A further data set can be described thus: Bortezomib solubility. The format is physicochemical. The conditions noted are these: read-out: BTZ solubility.

For the compound `CC(C)C[C@H](NC(=O)[C@H](Cc1ccccc1)NC(=O)c1cnccn1)B(O)O` [Bortezomib, bortezomib], the “circulation time / plasma clearance” value in data set [1] is given as “rapidly cleared from the plasma”. Moreover, the solubility in the data set “Bortezomib solubility” (0.5% sodium cholate, 2% BA, 4% EA in water (water phase), aqueous with cosolvent or surfactant or cyclodextrin, Water phase: 0.5% sodium cholate, 2% BA, 4% EA in water) is 1300 µg/mL (≈ 3.38 mM); in “Bortezomib solubility” (benzyl alcohol:ethyl acetate 21:79 (w/w %) (oil phase), organic solvent or mixture, Oil phase: Benzyl alcohol:Ethyl acetate (BA:EA = 21:79, w/w %)), greater than 93000 µg/mL; in the data set “Bortezomib solubility” (water (quench phase), water, Quench phase: water), 1100 µg/mL (≈ 2.86 mM).
